Data reported in the NIST ThermoML archive (doi:10.1021/je400178k).

Assay: molar heat capacity at constant pressure; xn = mol fraction of the nth substance listed
Conditions: 101 kPa, Liquid, Small sample (50 mg) DSC

OCCN1CCOCC1 [4-morpholineethanol] + O
molar heat capacity at constant pressure [J/K/mol]
Conditions	x1 = 0.0998	x1 = 0.1985	x1 = 0.2979	x1 = 0.3969	x1 = 0.4952	x1 = 0.6017	x1 = 0.7031	x1 = 0.7657	x1 = 0.8977	x1 = 1
298.15 K	101	120.8	140.3	159.5	177.4	195.6	212.8	223.5	246.5	263.9
303.15 K	102.4	123.6	142.6	162.4	180	198	214.7	226	248.4	265.3
308.15 K	103.8	125.7	144.6	165	182.6	200.3	217.1	228.3	250.8	267.1
313.15 K	105.4	127.9	146.7	167.8	185.5	203	219.7	230.8	253.1	269.2
318.15 K	107.2	130.4	148.9	171	188.6	205.9	222.5	233.3	255	270.8
323.15 K	109	133	152.3	174.4	191.8	208.7	225.5	235.8	257	272.6
328.15 K	111.4	136	156.3	178.4	195.5	211.8	228.7	238.6	259.1	274.3
333.15 K	114.2	139.3	160.3	183	199.7	215.6	232.5	242.5	261.7	276.2
338.15 K	117.4	143.2	165	188.6	204.6	220.1	237	246.3	264.7	278.7
343.15 K	121.1	147.7	170.6	194.6	209.9	225.4	241.6	250.3	267.9	281
348.15 K	125.9	152.9	178.7	201.6	215.9	231	246.6	254.8	271.2	283.2
353.15 K	131.9	159.5	187	209.9	222.5	236.4	252.2	259.4	274.8	284.9

OCCN1CCNCC1 [N-(2-hydroxyethyl)piperazine] + O
molar heat capacity at constant pressure [J/K/mol]
Conditions	x1 = 0.0999	x1 = 0.2	x1 = 0.2921	x1 = 0.3916	x1 = 0.4896	x1 = 0.6011	x1 = 0.6947	x1 = 0.7952	x1 = 0.8939	x1 = 1
298.15 K	104.2	126.9	145.8	165.4	184.7	206.4	224.8	244.6	264.2	285
303.15 K	105.7	129.2	149.2	169.1	188.3	210.1	228.7	248.9	268.8	289.9
308.15 K	107.1	131.5	151.9	171.5	191	212.7	231.4	251.8	271.6	292.9
313.15 K	108.6	133.9	154.8	174.4	194.1	215.8	234.5	254.5	274.4	296
318.15 K	110.4	136.1	157.5	177.5	196.8	218.2	237.1	257.2	277.2	298.9
323.15 K	112.2	139	160.7	179.9	199.4	220.7	239.6	259.8	279.8	301.7
328.15 K	114.3	142.3	164.2	182.4	202	223.7	242.6	262.7	282.8	305
333.15 K	115.7	144.9	167.3	185.7	204.7	226.3	245.3	265.5	285.7	308.1
338.15 K	118.5	148	170.6	188.1	207.5	229.1	248.2	268.2	288.4	311
343.15 K	120.8	150.6	173.3	190.9	210.1	232	250.8	270.8	291.1	313.9
348.15 K	122.5	153	175.6	194	212.8	234.8	253.5	273.3	293.6	316.5
353.15 K	124	155.5	177.9	197.6	215.5	237.5	256.1	275.8	296.1	319
